Experimental findings from article PMC5618334, “Hydrocarbon constrained peptides – understanding preorganisation and binding affinity” (Chemical Science, 2016) are described below.

One test concerns the target T1, Bcl-xL/BODIPY-BAK (Homo sapiens, UniProt Q07817, DEL26-81).
T1 construct: pET28a His-SUMO Bcl-xL (1-198, missing 26-81); His-SUMO (N, cleaved yes); made in house; host or cells: E. coli Rosetta 2
Briefly: Fluorescence anisotropy competition assay, inhibition of Bcl-xL/BODIPY-BAK interaction. Type of test: binding. Here is the method:
(§1) To profile the binding behaviour of the constrained peptides we tested them in both competition displacement assays and direct binding assays. […] Of particular interest was the potential for the introduction of a constraint to have differential effects on protein specificity/selectivity. […] We next tested the constrained peptides in inhibition assays (Fig. 3a and b and Table 2). […]
(§2) constructs were over-expressed in the E. coli strain Rosetta 2. Cells were resuspended in 50mM TRIS pH 8.0, 500mM NaCl, 15mM Imidazole and lysed by sonication. The clarified lysate was applied to a 5ml HisTrap column equilibrated with 50mM TRIS pH 8.0, 500mM NaCl, 15mM Imidazole. The HisTrap was then washed with 10 CV of 50mM TRIS pH 8.0, 500mM NaCl, 15mM Imidazole followed by 10 CV 50mM TRIS pH 8.0, 500mM NaCl, 25mM Imidazole. The fusion proteins were eluted in 50mM TRIS pH 8.0, 500mM NaCl, 300mM Imidazole. TheHis-SUMO tag was removed in overnight in dialysis into 50mM TRIS pH 8.0, 250mM NaCl in the presence of Smt3 protease, Ulp1, overnight at 4°C. Uncleaved material and His-SUMO were removed by reapplication of the sample to a HisTrap in 50mM TRIS pH 8.0, 250mM NaCl and the flow through containing Mcl- […]
(§3) The proteins were then filtered before further purification on a Superdex 75 (GE […]
(§4) proteins were concentrated and stored at -80°C.
(§5) The assays were performed as detailed in 10, 11.
(§6) The buffers used for fluorescence anisotropy were either phosphate buffer (40 mM sodium phosphate, 200 mM sodium chloride, 0.02 mg ml-1 bovine serum albumin, pH 7.50) or Tris buffer (50 mM Tris, 140 mM sodium chloride, pH 7.50). Phosphate buffer was used for all competition assays […]
(§7) Assays were run in 96 or 384 well Optiplates and were scanned using a Perkin Elmer EnVisionTM 2103 MultiLabel plate reader. Fluorescein labelled peptides used an excitation and emission wavelength of 480 (30) nm and 535 (40) nm respectively (dichroic mirror 505 nm) whilst BODIPY labelled peptides used an excitation and emission wavelength of 531 (25) nm and 595 (60) nm respectively (dichroic mirror 555 nm), […]
(§8) Plates were read after 1 h […]
(§9) respectively. Plates were read after 1 h. […]
(§10) Processing of fluorescence anisotropy data
(§11) Fluorescence anisotropy data was processed using Microsoft Excel to calculate intensity, anisotropy […]
(§12) b (λ(rmax − r) + r − rmin) r = anisotropy, I = total intensity, P = perpendicular intensity, S = parallel intensity, Lb = fraction ligand bound, λ = Ibound/Iunbound , G = 1= instrumental factor. […]
(§13) the calculation of IC50 and EC50) or to the Kd model for the extraction of Kd values:
(§14) Where for the logisitic model; y = r = anisotropy, xo = mid-point of the curve between the rmax and rmin […]
(§15) For the Kd model; y = Lb*[FL], K = Kd, [FL] = Concentration of fluorescent ligand.

A further test concerns the target T2, Bcl-xL (Homo sapiens, UniProt Q07817, DEL26-81).
T2 construct: pET28a His-SUMO Bcl-xL (1-198, missing 26-81); made in house; host or cells: E. coli Rosetta 2
Nature of the test: Fluorescence anisotropy direct binding assay with Bcl-xL. The following applies: for EC50: Bcl-xL titrated into FITC-labelled peptide (25-100 nM), 50 mM tris, 140 mM NaCl, pH 7.50, logistic fit. As to the method: (§16) Direct titration experiments were also performed for FITC labelled BID peptides (Fig. 5). […]
as §2, §3, §4, §5, §6, §7, §8
(§17) respectively. Plates were read after 1 h.
(§18) For all variants of the labelled BID peptides (FITC-BID-WT,FITC-BID-MM, FITC-BID-DM and FITC-BID-Aib), the direct binding assays were performed in Tris Buffer in 384 well plates. In protein titrations, the protein concentration started from between 1-10 µM and was diluted over 24 points in a 3/4 dilution regime, with the concentration of the labelled peptide fixed at 25-100 nM. In the peptide titrations, the concentration of the labelled peptides started from 5 µM and were diluted in a 2/3 regime over 24 points, with the concentration of the protein fixed at 50 nM. Plates were read after 2 hours of incubation, and read again after 4 and 18 hours to ensure complete equilibration.
as §10, §11, §12, §13, §14, §15
Background: Fluorescence polarisation rises when a labelled molecule tumbles more slowly, as on binding a larger partner.

The next test deals with T3, Mcl-1 (Homo sapiens, UniProt Q07820).
T3 construct: His-SUMO (N, cleaved yes); made in house; host or cells: E. coli Rosetta 2
T3 sequence (Q07820 172-327): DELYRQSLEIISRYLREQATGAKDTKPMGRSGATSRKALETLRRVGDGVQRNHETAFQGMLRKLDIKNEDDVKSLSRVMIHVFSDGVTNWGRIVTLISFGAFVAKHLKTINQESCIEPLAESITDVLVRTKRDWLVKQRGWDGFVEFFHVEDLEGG
Nature of the test: Fluorescence anisotropy direct binding assay with Mcl-1. As to the method:
as §16, §2, §3, §4, §5, §6, §7, §8, §17, §18, §10, §11, §12, §13, §14, §15

A further test has as its target T4, Mcl-1/FITC-NOXA-B (Homo sapiens, UniProt Q07820).
T4 construct: His-SUMO (N, cleaved yes); made in house; host or cells: E. coli Rosetta 2
Nature of the test: Fluorescence anisotropy competition assay, inhibition of Mcl-1/FITC-NOXA-B interaction. The following applies: Table S1, unconstrained BH3 peptides; FA competition; Mcl-1 150 nM, FITC-NOXA-B 50 nM; phosphate buffer pH 7.50; read after 1 h. In kind it is binding. Here is the method:
as §1, §2, §3, §4, §5, §6, §7, §8, §9, §10, §11, §12, §13, §14, §15

Where a SMILES comes first, the peptide text is derived from it. [ ]: non-standard residue; d: D form. The star is where a group is joined. FITC = O=C1OC2(c3ccc(O)cc3Oc3cc(O)ccc32)c2ccc(NC(=S)*)cc21; Nle = CCCC[C@H](N)C(=O)O; Ahx = NCCCCCC(=O)O

T1 sequence (Q07817 with tags, fused parts or gaps DEL26-81): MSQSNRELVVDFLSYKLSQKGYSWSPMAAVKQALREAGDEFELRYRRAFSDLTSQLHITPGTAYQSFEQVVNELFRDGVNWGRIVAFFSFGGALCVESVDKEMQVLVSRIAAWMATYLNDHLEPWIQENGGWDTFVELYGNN
T2 sequence (Q07817 with tags, fused parts or gaps DEL26-81): as above
T4 sequence (Q07820 172-327): as the sequence (Q07820 172-327) above

As a reminder, the IC50 is the concentration that gives 50% inhibition. Read a low IC50 as greater potency. On to `CCCC[C@H](NC(=O)C(C)(C)NC(=O)[C@H](CC(=O)O)NC(=O)CNC(=O)[C@@H](NC(=O)C(C)(C)NC(=O)[C@H](C)NC(=O)[C@H](CC(C)C)NC(=O)[C@H](Cc1c[nH]cn1)NC(=O)[C@H](CCCNC(=N)N)NC(=O)[C@H](C)NC(=O)[C@@H](NC(=O)[C@H](CC(N)=O)NC(=O)[C@H](CCCNC(=N)N)NC(=O)[C@@H](NC(=O)[C@@H](NC(=O)[C@H](CC(=O)O)NC(=O)[C@H](CCC(=O)O)NC(C)=O)[C@@H](C)CC)[C@@H](C)CC)[C@@H](C)CC)C(C)C)C(=O)N[C@@H](CC(=O)O)C(=O)N[C@@H](CCCNC(=N)N)C(=O)N[C@@H](CO)C(=O)N[C@H](C(=O)N[C@@H](Cc1c[nH]c2ccccc12)C(N)=O)[C@@H](C)CC` [BID-AIB], for which the concentration for half-maximal inhibition (IC50) at Bcl-xL/BODIPY-BAK was 1140 ± 50 nM.

Take `CC[C@H](C)[C@H](NC(C)=O)C(=O)N[C@@H](Cc1c[nH]c2ccccc12)C(=O)N[C@H](C(=O)N[C@@H](C)C(=O)N[C@@H](CCC(N)=O)C(=O)N[C@@H](CCC(=O)O)C(=O)N[C@@H](CC(C)C)C(=O)N[C@@H](CCCNC(=N)N)C(=O)N[C@@]1(C)CCCC=CCCC[C@@](C)(C(=O)N[C@@H](Cc2ccccc2)C(=O)N[C@@H](CC(N)=O)C(=O)N[C@@H](C)C(=O)N[C@@H](Cc2ccc(O)cc2)C(=O)N[C@@H](Cc2ccc(O)cc2)C(=O)N[C@@H](C)C(=O)N[C@@H](CCCNC(=N)N)C(=O)N[C@@H](CCCNC(=N)N)C(N)=O)NC(=O)[C@H](CC(=O)O)NC(=O)CNC(=O)[C@H]([C@@H](C)CC)NC1=O)[C@@H](C)CC` [BIM-DM]: at Bcl-xL/BODIPY-BAK, the IC50 turned out to be 4000 ± 620 nM.

In general, EC50 refers to the concentration needed to bring the measured effect to its halfway point. Low values mean a more potent agent, high ones a less potent agent. For `CCCC[C@H](NC(=O)[C@]1(C)CCCC=CCCC[C@](C)(NC(=O)[C@H](C)NC(=O)[C@H](CC(C)C)NC(=O)[C@H](Cc2c[nH]cn2)NC(=O)[C@H](CCCNC(=N)N)NC(=O)[C@H](C)NC(=O)[C@@H](NC(=O)[C@H](CC(N)=O)NC(=O)[C@H](CCCNC(=N)N)NC(=O)[C@@H](NC(=O)[C@@H](NC(=O)[C@H](CC(=O)O)NC(=O)[C@H](CCC(=O)O)NC(=O)CCNC(=S)Nc2ccc3c(c2)C(=O)OC32c3ccc(O)cc3Oc3cc(O)ccc32)[C@@H](C)CC)[C@@H](C)CC)[C@@H](C)CC)C(=O)N[C@@H](C(C)C)C(=O)NCC(=O)N[C@@H](CC(=O)O)C(=O)N1)C(=O)N[C@@H](CC(=O)O)C(=O)N[C@@H](CCCNC(=N)N)C(=O)N[C@@H](CO)C(=O)N[C@H](C(=O)N[C@@H](Cc1c[nH]c2ccccc12)C(N)=O)[C@@H](C)CC` [FITC-BID-DM], the 50% effective concentration (EC50) on Bcl-xL (FA direct binding) is 159 ± 13 nM; at Mcl-1 it was 129 ± 3 nM.

With `CCCC[C@H](NC(=O)[C@@H]1CCC/C=C\CCC[C@H](NC(=O)[C@H](C)NC(=O)[C@H](CC(C)C)NC(=O)[C@H](Cc2c[nH]cn2)NC(=O)[C@H](CCCNC(=N)N)NC(=O)[C@H](C)NC(=O)[C@@H](NC(=O)[C@H](CC(N)=O)NC(=O)[C@H](CCCNC(=N)N)NC(=O)[C@@H](NC(=O)[C@@H](NC(=O)[C@H](CC(=O)O)NC(=O)[C@H](CCC(=O)O)NC(=O)CCNC(=S)Nc2ccc3c(c2)C(=O)OC32c3ccc(O)cc3Oc3cc(O)ccc32)[C@@H](C)CC)[C@@H](C)CC)[C@@H](C)CC)C(=O)N[C@@H](C(C)C)C(=O)NCC(=O)N[C@@H](CC(=O)O)C(=O)N1)C(=O)N[C@@H](CC(=O)O)C(=O)N[C@@H](CCCNC(=N)N)C(=O)N[C@@H](CO)C(=O)N[C@H](C(=O)N[C@@H](Cc1c[nH]c2ccccc12)C(N)=O)[C@@H](C)CC` [FITC-BID-MM], the results for the concentration for a half-maximal effect (EC50) on Bcl-xL (FA direct binding) and on Mcl-1 were 186 ± 24 nM and 153 ± 12 nM, respectively.

For orientation: Kd means the constant that tells how readily two partners part at equilibrium. Higher therefore signals a looser complex. For the compound `CCCC[C@H](NC(=O)[C@H](CO)NC(=O)[C@H](CC(=O)O)NC(=O)CNC(=O)[C@@H](NC(=O)[C@H](CCC(N)=O)NC(=O)[C@H](C)NC(=O)[C@H](CC(C)C)NC(=O)[C@H](Cc1c[nH]cn1)NC(=O)[C@H](CCCNC(=N)N)NC(=O)[C@H](C)NC(=O)[C@@H](NC(=O)[C@H](CC(N)=O)NC(=O)[C@H](CCCNC(=N)N)NC(=O)[C@@H](NC(=O)[C@@H](NC(=O)[C@H](CC(=O)O)NC(=O)[C@H](CCC(=O)O)NC(=O)CCCCCNC(=S)Nc1ccc2c(c1)C(=O)OC21c2ccc(O)cc2Oc2cc(O)ccc21)[C@@H](C)CC)[C@@H](C)CC)[C@@H](C)CC)C(C)C)C(=O)N[C@@H](CC(=O)O)C(=O)N[C@@H](CCCNC(=N)N)C(=O)N[C@@H](CO)C(=O)N[C@H](C(=O)N[C@@H](Cc1c[nH]c2ccccc12)C(N)=O)[C@@H](C)CC` [FITC-BID-WT] ({FITC-Ahx}-EDIIRNIARHLAQVGDS[Nle]DRSIW-NH2), the dissociation constant Kd turned out to be 21 ± 6.6 nM at Bcl-xL and 50 ± 20 nM at Mcl-1. In addition, the EC50 worked out at 79 ± 6 nM on Bcl-xL (FA direct binding) and 98 ± 8.9 nM at Mcl-1.

Consider `CC[C@H](C)[C@H](NC(=O)[C@H](CCCNC(=N)N)NC(=O)[C@H](CCCNC(=N)N)NC(=O)[C@H](CC(C)C)NC(=O)[C@H](CCC(N)=O)NC(=O)[C@H](C)NC(=O)[C@H](CS)NC(=O)[C@H](CCC(=O)O)NC(=O)[C@H](CC(=O)O)NC(=O)[C@H](CCCCN)NC(=O)[C@H](CC(C)C)NC(=O)[C@H](CC(=O)O)NC(=O)[C@H](C)NC(=O)[C@@H]1CCCN1C(=O)CCCCCNC(=S)Nc1ccc2c(c1)C(=O)OC21c2ccc(O)cc2Oc2cc(O)ccc21)C(=O)NCC(=O)N[C@@H](CC(=O)O)C(=O)N[C@@H](CCCCN)C(=O)N[C@H](C(=O)N[C@@H](CC(N)=O)C(=O)N[C@@H](CC(C)C)C(N)=O)C(C)C` [FITC-NOXA-B], for which, on Bcl-xL (FA direct binding, labelled unconstrained BH3 peptide, Kd model (Table S1), phosphate buffer for BODIPY-BAK and FITC-NOXA-B, Tris buffer for FITC-BID), the “Bcl-xL Kd” value is reported as “no binding”. Moreover, the equilibrium dissociation constant (Kd) at Mcl-1 was 18.7 ± 0.9 nM.

As to “Ac-LWAAQRYGRELRRMSDEFEGSFDKL-NH2 [BAD, reference compound]”, the IC50 at Bcl-xL/BODIPY-BAK was determined as 140 ± 15 nM. In addition, at Mcl-1/FITC-NOXA-B, the “Mcl-1/ FITC-NOXA-B IC50” value is “no inhibition”.
